Results reported in US20250262209A1, “TREATMENT OF GASTROINTESTINAL DISEASES” (Aclipse Two, Inc., priority 2022, published 2025).

Columns and labels:
Format in all cases: cell-based, human
[1] = test system: monocytes differentiated to M1 macrophage; experiment: M1 macrophage differentiation assay; details: TNF-α, IL-1b, IL-6, IL-12, IL-23 in supernatant on day 7 (MSD); concentrations of Table 9
Source text: The purpose of this study was to evaluate the effects of lobeglitazone and other thiazolidinediones on M1 macrophage differentiation. The test articles and vehicles used in this study were lobeglitazone sulfate, pioglitazone HCl, and rosiglitazone.
M1 macrophage differentiation assay timeline was as follows in Table 8.
Drug concentrations tested in the M1 differentiation assay are as in Table 9.
• (1) Revive frozen monocytes. • (2) Count cells and adjust the cell density to 0.5×10^6 cells/ml with fresh complete differentiation medium (RPMI1640+10% FBS+1% PS plus GM-CSF or M-CSF at 50 ng/ml). • (3) Seed isolated monocyte 100 μL per well on 96-well plate. • (4) Add test articles as the plate map using D300e (final concentration in μM). • (5) Differentiate the monocyte to macrophage in the presence of GM-CSF to M1, or M-CSF to M2 for 5 days. • (6) On day 5, add cytokines at 2× final concentration. • (6a) Prepare medium containing GM-CSF for M1 and M-CSF for M2. • (6b) Add corresponding activator to reach 2× final working concentration: (i) IFNγ stock 0.2 mg/ml: add 2.5 μL stock into 5 ml complete differentiation medium for 100 ng/ml; (ii) LPS stock 1.0 mg/ml: dilute to 20 μg/ml by mixing 2 μL stock into 100 μl medium; then add 10 μl 20 μg/ml LPS to 5 ml complete differentiation medium for 40 ng/ml; (iii) IL-4 stock 0.1 mg/ml: dilute 2 μL stock into 5 ml complete differentiation medium for 40 ng/ml. • (6c) Add 100 μL cytokine containing differentiating medium to each well, and total volume of each well is 200 μL. • (6d) Add test compound again using D300e. Make sure to set the final volume as 200 μL. • (7) Incubate cytokine and test compound for 48 hours. • (8) On day 7, spin down the plates at 300×g for 5 min and collect the supernatant for cytokine quantification using MSD. • (9) M1 associated macrophage cytokines TNF-α, IL-1b, IL-6, IL-12, and IL-23 were quantified.

[2] = test system: monocytes from PBMC differentiated into M2 macrophage; experiment: M2 macrophage differentiation assay; details: CD163, CD11c, CD206; donor 1 and 2
Source text: The purpose of this study was to evaluate the effects of lobeglitazone and other thiazolidinediones on M2 macrophage differentiation. The test articles and vehicles used in this study were lobeglitazone sulfate, pioglitazone HCl, and rosiglitazone.
M2 macrophage differentiation assay timeline was as follows in Table 10.
• (1) Isolate monocytes from PBMC using StemCell® monocyte isolation kit • (2) Count cell and adjust the cell density to 0.5×10^6 cells/ml with fresh complete differentiation medium. Add 5 μL M-CSF stock ([…]) to each 5 ml cell mixture. • (3) Seed isolated monocyte 100 μL per well on 96-well plate. • (4) Add test articles as the plate map using D300e (final concentration in μM). • (5) Differentiate the monocyte to macrophage in the presence of M-CSF to […] for 4 days. • (6) On day 4, add additional medium containing M-CSF. • (7) Add test compounds using D300e (final volume=[…]). • (8) On day 6, add IL-4 at 5× final concentration (IL-4 stock 0.1 mg/ml: dilute 10 μl stock into 10 ml medium for 100 ng/ml. Add 50 μl 100 ng/ml IL-4 to each well containing 200 μL medium to reach 20 ng/ml). • (9) On day 8, spin down the plates at 300×g for 5 min and collect the supernatant for cytokine quantification using MSD. • (10) M2 associated macrophage cytokines of interest are listed below in Table 12.
• (11) Collect cells for flow analysis of viability/CD11c/CD163/CD206.
Flow cytometry and surface marker CD163, CD11c, and CD206 were applied to characterize M2 repolarization. No stain and all stain with surface marker antibody to confirm the optimization of gating strategy.

[3] = test system: monocytes from PBMC, M1-to-M2 macrophage repolarization; experiment: M1-to-M2 macrophage repolarization assay; details: cytokine analysis (MSD), day 14 supernatant
Source text: The purpose of this study was to evaluate the effects of lobeglitazone and other thiazolidinediones on M1-to-M2 macrophage repolarization. The test articles and vehicles used in this study were lobeglitazone sulfate, pioglitazone HCl, and rosiglitazone.
M1-to-M2 macrophage repolarization assay timeline were as follows in Table 13.
Drug concentrations tested in the M1 differentiation assay are as in Table 14.
• (1) Isolate monocytes from PBMC using StemCell® monocyte isolation kit. • (2) Count cell and adjust the cell density to 0.5×10^6 cells/ml with fresh complete differentiation medium (add 10 μl M-CSF stock (100 μg/ml) 10 ml cell mixture to a final concentration of 50 ng/ml). • (3) Seed isolated monocyte 100 μL per well on 96-well plate. • (4) On day 4, add additional 100 μl medium containing M-CSF • (5) On day 6, add stimulator at 5× final concentration (200 μL medium in each well) to a final concentration of 50 ng/ml. • (6) On day 8, remove medium and replenish with 200 μL cytokine free medium, then add test compound (final concentration in μM) and incubate for 4 days. • (7) On day 12, add IL-4 and incubate for 2 days (add 50 μL of 100 ng/ml IL-4 to each well containing 200 μL medium to reach 20 ng/ml). • (8) On day 14, spin down the plates at 300×g for 5 min and collect the supernatant for cytokine quantification. • (9) M1 and M2 associated macrophage cytokines of interest are as follows in Table 15.
The cells are then collected for flow analysis of viability/CD11c/CD163/CD206.
Cell surface marker CD163, CD11c, and CD206 were applied to characterize M2 repolarization via flow cytometry. Controls included No stain and staining with all surface marker antibodies to confirm the optimization of gating strategy.

Row | Compound | M1 macrophage cytokines expression [1] | concentration at which M2 repolarization was promoted (M2 macrophage surface markers, flow cytometry) [2] | concentration showing remarkable promotion of MDC expression [3]
1 | CN(CCOc1ccc(CC2SC(=O)NC2=O)cc1)c1ccccn1 (racemic) [rosiglitazone, (RS)-5-[4-(2-[methyl(pyridin-2-yl)amino]ethoxy)benzyl]thiazolidine-2,4-dione] | promoted the M1 macrophage cytokines in a dose-dependent manner | ~0.4 µM | 6.4 µM
2 | CCc1ccc(CCOc2ccc(CC3SC(=O)NC3=O)cc2)nc1.Cl (racemic) [pioglitazone, (±)-5-[p-[2-(5-Ethyl-2-pyridyl)ethoxy]benzyl]-2,4-thiazolidinedione monohydrochloride] | promoted the M1 macrophage cytokines in a dose-dependent manner | ~10 µM | 5 µM
